Source: patent US20250325529A1, “INHIBITORS OF FATTY ACID BINDING PROTEINS (FABPs), METHODS OF USE AND METHODS OF MAKING” (Celloram, inc., priority 2024, published 2025)
“Also recorded” adds a separate entry of the source.

Tests used:
FABP3 = FABP3 (Homo sapiens (Human), UniProt P05413); assay: Fluorescence (ANS) competition binding assay, FABP3; details: ANS displacement
In short: (§1)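 His-tagged FABPs were expressed in E. coli. Kd for ANS was first determined by titrating 2 μM protein with ANS and following fluorescence increase. Compounds then displaced ANS from 1:1 protein:ANS complexes, and Kd was derived from the competition EC50 and the ANS Kd.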

FABP7 = FABP7 (Homo sapiens (Human), UniProt O15540); assay: Fluorescence (ANS) competition binding assay, FABP7; details: ANS displacement
Sequence of FABP7 (O15540 whole entry, species assumed): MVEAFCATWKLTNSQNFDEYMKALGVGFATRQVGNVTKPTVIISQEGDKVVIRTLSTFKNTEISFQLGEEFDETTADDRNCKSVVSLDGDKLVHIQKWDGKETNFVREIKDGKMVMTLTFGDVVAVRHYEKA
In short: as §1

PPARγ = PPARγ (Homo sapiens (Human), UniProt P37231); assay: Transcriptional activation assay in COS7 cells, PPARγ; assay type: cell-based; details: PPRE luciferase reporter, PD151 and PD152 at 10 μM
Sequence of PPARγ (P37231 whole entry, species assumed): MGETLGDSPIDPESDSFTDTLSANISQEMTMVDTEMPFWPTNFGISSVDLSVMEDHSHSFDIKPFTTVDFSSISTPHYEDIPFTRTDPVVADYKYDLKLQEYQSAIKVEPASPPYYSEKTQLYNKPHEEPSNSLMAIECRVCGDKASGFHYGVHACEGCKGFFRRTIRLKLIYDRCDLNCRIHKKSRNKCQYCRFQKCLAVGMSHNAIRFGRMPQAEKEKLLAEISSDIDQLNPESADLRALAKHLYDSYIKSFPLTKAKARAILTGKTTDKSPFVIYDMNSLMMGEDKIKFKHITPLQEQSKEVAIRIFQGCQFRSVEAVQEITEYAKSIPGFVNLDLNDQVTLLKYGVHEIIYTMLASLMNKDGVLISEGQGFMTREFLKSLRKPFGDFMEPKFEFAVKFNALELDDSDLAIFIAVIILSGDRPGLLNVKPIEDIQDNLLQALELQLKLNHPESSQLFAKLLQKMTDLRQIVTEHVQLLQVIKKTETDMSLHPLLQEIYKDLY
Protocol: COS-7 were cultured in 6-well plates and co-transfected with either a luciferase reporter driven by 3 copies of a PPRE and expression vector for either PPARδ, PPARα or PPARγ together with a vector harboring cDNA for β-galactosidase, serving as a transfection control. To test whether FABP4 or FABP5 mediate activation of their cognate receptors PPARγ and PPARδ, respectively, cells were also co-transfected with a plasmid harboring sequence of either FABP4 or FABP5. 18 h post-transfection, cells were placed in a serum-free medium and treated with agonist/compound. 18 h. later, cells were lysed, luciferase activity was assayed (Promega, WI, USA) and corrected for transfection efficiency by the activity of β-galactosidase.
Transcriptional activation assays were carried out utilizing COS7 cells as described above.

MB-231 cells = assay: Proliferation assay (Incucyte confluency), MB-231; assay type: cell-based; details: Homo sapiens, 96 h, 4 days, read-out: IC50, inhibition of proliferation
Protocol: (§2) COS-7, MDA-MB-231, and HepG2, were cultured in Dulbecco's modified Eagle's medium (DMEM) supplemented with 10% fetal bovine serum (Invitrogen Life Sciences, Carlsbad, CA). BT-549, OVCAR5 and OVCAR8 cells were cultured in L-Glutamine containing RPMI medium supplemented with 10% fetal calf serum (Invitrogen Life Sciences, Carlsbad, CA). The primary Human Mammary Epithelial Cells (HMEC) were cultured in mammary epithelial cell complete medium (basal medium plus rH-Insulin (5 μg/mL); L-Glutamine (6 mM); Epinephrine (1 μM); Apo-Transferrin (5 μg/mL); rH-TGF-α (0.5 ng/mL); ExtractP (0.4%); Hydrocortisone Hemisuccinate (100 ng/mL)).
(§3) 2000 cells were plated in each well of 96-well plate. The next day cells were treated with compounds and incubated in Incucyte for 4 days. Images taken every 4 hours for the duration of the time were analyzed to calculate percentage of confluency in response to the treatments. Growth inhibition was calculated as 1—(percentage of viable cells out of untreated cells).

OVCAR8 cells = assay: Proliferation assay (Incucyte confluency), OVCAR8; assay type: cell-based; details: Homo sapiens, OVCAR-8, 96 h, 4 days, read-out: IC50, inhibition of OVCAR8 proliferation
Protocol: as §2, §3

HepG2 cells = assay: Lipid uptake assay (Nile Red), in vitro liver steatosis model; assay type: cell-based
Protocol: HepG2 cells: 5000 cells were plated in 96-well plate. The next day cells were treated with tested compounds for 4 hours and then treated with 1 mM oleic acid for additional 24 hours. Cells were then stained with Nile Red and lipid content was measured using Spectra Max i3X plate reader (Molecular Devices) and quantified with the SoftMax Pro 6 software.

[1] = test system: Salmonella typhimurium tester strains TA98, TA100, TA1535, TA1537 and Escherichia coli tester strain WP2 uvrA (pKM101); assay: Ames test, overall conclusion for the tested strains; assay type: cell-based; details: presence and absence of S9
Protocol: PD152 (compound 2) was tested for genotoxic and cytotoxic side effects by Ames test. The Ames test is a Bacterial Reverse Mutation Test of mutagenicity that utilizes Salmonella typhimurium tester strains TA98, TA100, TA1535, TA1537 and Escherichia coli tester strain WP2 uvrA (pKM101), both in the presence and absence of S9.
The compound PD152 was tested at 10 concentrations (0.032-1000 μg/plate) in the presence of, or absence of, the hepatic enzyme S9.
The aniline FABP4/5 inhibitor compound, 2-((2-((2,4-dichloro-5-isopropoxyphenyl)amino)-2-oxoethyl)thio)-2-methylpropanoic acid (compound “B104” as disclosed in WO2023043803A1) also was tested for genotoxic and cytotoxic side effects by Ames test. B104 was tested using the Salmonella typhimurium tester stains TA98, TA100, TA1535, and TA1537, both in the presence and absence of the hepatic enzyme S9, at 5 concentrations (1.5-64 μg/plate).

Sequence of FABP3 (P05413 whole entry, species assumed): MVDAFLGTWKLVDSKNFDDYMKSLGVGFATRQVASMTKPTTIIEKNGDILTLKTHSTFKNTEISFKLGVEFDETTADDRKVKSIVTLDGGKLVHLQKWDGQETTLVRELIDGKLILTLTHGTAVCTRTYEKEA

For `CC(C)Oc1nc(NC(=O)CSCC(=O)O)c(Cl)cc1Cl` [PD152, 2-((2-((3,5-dichloro-6-isopropoxypyridin-2-yl)amino)-2-oxoethyl)thio)acetic acid], the Kd (FABP3) was 188 nM, the Kd (FABP7) was 989 nM and the “Activation of transcription by PPARγ” value (PPARγ) was “None of these tested compounds activated; also recorded: none of the tested compounds PD151 and PD152 activated transcription”. The IC50 (MB-231 cells) was 603 nM, the IC50 (OVCAR8 cells) was 665 nM and the IC50 (HepG2 cells; Homo sapiens, compound 4 h then oleic acid 1 mM 24 h, Nile Red, read-out: IC50 for inhibition of lipid uptake) was 553 nM. The “Treatment concentrations at which lipid uptake was markedly inhibited” value (HepG2 cells; oleic acid 1 mM) was > 0.2 µM, the “Cytotoxicity to the tested strains” value [1] was “non-cytotoxic” and the “Mutagenicity in the Ames test” value [1] was “non-mutagenic”.
